Results as given in patent US20260184725A1, “CYCLIC 2-AMINOPYRIMIDINE COMPOUND AND PHARMACEUTICAL COMPOSITION AND USE THEREOF” (SHANGHAI INSTITUTE OF ORGANIC CHEMISTRY, CHINESE ACADEMY OF …, priority 2023, published 2026).

What was measured:
[1] = biological target: BaF3-EGFR (L858R/T790M/C797S) (Homo sapiens, UniProt P00533, T790M/C797S/L858R, cells depend on it); assay: CCK-8 cell proliferation, BaF3-EGFR(L858R/T790M/C797S); type: cell-based; conditions: CCK-8, 72 hours; read-out: Average value of IC50 of inhibition against EGFR-mutant cells growth, BaF3-EGFR (L858R/T790M/C797S)
BaF3-EGFR (L858R/T790M/C797S), sequence (P00533 whole entry T790M/C797S/L858R): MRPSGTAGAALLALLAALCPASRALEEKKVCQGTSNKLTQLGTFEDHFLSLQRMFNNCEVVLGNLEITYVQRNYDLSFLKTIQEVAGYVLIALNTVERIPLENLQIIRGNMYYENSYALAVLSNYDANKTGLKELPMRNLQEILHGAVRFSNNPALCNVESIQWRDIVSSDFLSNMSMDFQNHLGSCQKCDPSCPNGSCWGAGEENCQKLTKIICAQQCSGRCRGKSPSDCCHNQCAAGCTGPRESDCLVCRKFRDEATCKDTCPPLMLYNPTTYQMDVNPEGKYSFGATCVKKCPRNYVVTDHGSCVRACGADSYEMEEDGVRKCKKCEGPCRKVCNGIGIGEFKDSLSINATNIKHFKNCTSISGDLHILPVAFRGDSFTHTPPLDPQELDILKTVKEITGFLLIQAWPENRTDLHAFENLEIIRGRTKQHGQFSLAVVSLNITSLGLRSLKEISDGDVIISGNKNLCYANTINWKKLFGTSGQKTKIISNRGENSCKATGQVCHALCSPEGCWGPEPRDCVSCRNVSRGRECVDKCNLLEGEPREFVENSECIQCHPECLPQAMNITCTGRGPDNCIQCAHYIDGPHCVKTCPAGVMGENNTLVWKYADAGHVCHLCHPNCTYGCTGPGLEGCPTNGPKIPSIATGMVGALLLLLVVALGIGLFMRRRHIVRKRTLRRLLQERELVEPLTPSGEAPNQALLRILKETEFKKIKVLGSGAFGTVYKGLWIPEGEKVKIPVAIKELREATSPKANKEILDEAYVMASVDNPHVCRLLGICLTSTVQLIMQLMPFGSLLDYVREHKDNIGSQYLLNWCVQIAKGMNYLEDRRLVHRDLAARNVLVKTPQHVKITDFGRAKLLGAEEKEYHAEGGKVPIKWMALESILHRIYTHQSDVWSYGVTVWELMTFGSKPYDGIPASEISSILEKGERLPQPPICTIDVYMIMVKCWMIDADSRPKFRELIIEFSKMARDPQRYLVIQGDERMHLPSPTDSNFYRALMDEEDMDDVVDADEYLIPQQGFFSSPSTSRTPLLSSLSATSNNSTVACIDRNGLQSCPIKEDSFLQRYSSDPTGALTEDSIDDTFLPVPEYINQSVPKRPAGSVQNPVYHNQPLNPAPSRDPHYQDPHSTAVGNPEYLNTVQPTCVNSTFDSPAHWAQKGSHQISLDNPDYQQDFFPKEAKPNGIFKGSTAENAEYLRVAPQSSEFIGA
Protocol: (§1) Ba/F3 cells were obtained from Deutsche Sammlung von Mikroorganismen und Zellkulturen GmbH (DSMZ). […] All cells used in the study were verified by short tandem repeat (STR) analysis conducted by Genesky.
(§2) Tumor cell viability was assessed using a CCK-8 cell counting kit (A311-01/02, Vazyme, Nanjing, China). Cells were seeded at a density of 3000 cells per well into 96-well plates and cultured overnight. Subsequently, the cells were treated with compounds of different concentrations and incubated for 72 hours. After 72 hours, 10 μL of CCK-8 solution was added to each well. The plates were then returned to the incubator and incubated at 37° C. for 2 hours. The absorbance was measured at 450 nm using a microplate reader. A calibration curve was constructed using data obtained from wells containing known numbers of viable cells.

EGFR^WT = biological target: T1, EGFR^WT (Homo sapiens, UniProt P00533); assay: ELISA kinase activity inhibition, wild-type EGFR; type: biochemical; conditions: ATP 5 μM, read-out: The average IC50 value (nM) for inhibiting the activity of different tyrosine kinases, EGFR^WT
T1 construct: purchased Eurofins
T1 sequence (P00533 25-1210): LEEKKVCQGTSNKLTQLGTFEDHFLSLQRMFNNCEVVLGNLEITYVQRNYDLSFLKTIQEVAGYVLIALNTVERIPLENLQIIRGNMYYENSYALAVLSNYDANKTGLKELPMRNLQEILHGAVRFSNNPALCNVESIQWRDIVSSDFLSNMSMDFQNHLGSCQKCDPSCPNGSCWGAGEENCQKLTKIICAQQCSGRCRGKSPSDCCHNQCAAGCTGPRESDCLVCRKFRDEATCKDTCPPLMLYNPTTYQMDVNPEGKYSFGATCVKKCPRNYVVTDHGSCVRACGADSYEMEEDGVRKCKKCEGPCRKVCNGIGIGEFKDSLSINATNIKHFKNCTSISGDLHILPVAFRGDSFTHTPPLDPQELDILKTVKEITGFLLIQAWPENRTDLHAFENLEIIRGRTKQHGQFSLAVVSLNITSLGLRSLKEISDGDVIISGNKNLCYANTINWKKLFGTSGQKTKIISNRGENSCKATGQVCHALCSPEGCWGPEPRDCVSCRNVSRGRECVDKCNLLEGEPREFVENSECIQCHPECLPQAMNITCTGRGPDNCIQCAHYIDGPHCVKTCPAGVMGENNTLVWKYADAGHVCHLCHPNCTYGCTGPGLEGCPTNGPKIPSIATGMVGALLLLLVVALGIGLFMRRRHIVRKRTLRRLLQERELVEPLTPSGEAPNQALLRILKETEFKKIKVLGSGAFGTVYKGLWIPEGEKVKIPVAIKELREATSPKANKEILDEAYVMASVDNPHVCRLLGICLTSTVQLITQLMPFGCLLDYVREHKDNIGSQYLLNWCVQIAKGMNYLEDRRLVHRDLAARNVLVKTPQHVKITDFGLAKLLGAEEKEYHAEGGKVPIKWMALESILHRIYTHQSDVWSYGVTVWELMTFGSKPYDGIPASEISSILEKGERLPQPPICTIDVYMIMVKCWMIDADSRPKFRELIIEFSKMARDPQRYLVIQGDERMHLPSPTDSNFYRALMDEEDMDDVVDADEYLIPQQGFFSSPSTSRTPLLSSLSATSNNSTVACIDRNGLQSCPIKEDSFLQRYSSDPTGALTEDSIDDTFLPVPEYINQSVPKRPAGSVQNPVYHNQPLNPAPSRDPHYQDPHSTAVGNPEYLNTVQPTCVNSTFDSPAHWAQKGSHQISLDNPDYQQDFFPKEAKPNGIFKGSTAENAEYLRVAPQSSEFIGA
Protocol: (§3) EGFR (WT) is a wild-type epidermal growth factor receptor.
(§4) Enzyme-Linked Immunosorbent Assay (ELISA) was used to detect the inhibitory effect of compounds on kinase activity.
(§5) The main experimental steps were as follows: Enzyme reaction substrate Poly (Glu, Tyr)4:1 was diluted with potassium free PBS (10 mM sodium phosphate buffer, 150 mM NaCl, pH 7.2-7.4) to 20 μg/mL, and reacted at 37° C. for 12 hours to 16 hours to coat the enzyme-linked immunosorbent assay plate. ATP solution (final concentration 5 μM) diluted with reaction buffer (50 mM HEPES pH 7.4, 50 mM MgCl2, 0.5 mM MnCl2, 0.2 mM Na3VO4, 1 mM DTT) was added to each well, followed by the test compound or solvent control, then the kinase reaction was initiated and the plate was shaken at 37° C. for 1 hour. The plate was washed three times with T-PBS, then added antibody PY99. The plate was shaken at 37° C. for 0.5 hours. After washing the plate with T-PBS, added horseradish peroxidase-labeled IgG and shaken at 37° C. for 0.5 hours. After washing the plate again, added 2 mg/mL of OPD colorimetric solution and incubated at 25° C. in the dark for 1 minutes to 10 minutes. […] The IC50 values were obtained from the inhibition curve analysis.

EGFR^19del/T790M/C797S = biological target: T2, EGFR^19del/T790M/C797S (Homo sapiens, UniProt P00533, T790M/C797S, form not given); assay: ELISA kinase activity inhibition, EGFR 19del/T790M/C797S; type: biochemical; conditions: ATP 5 μM, read-out: The average IC50 value (nM) for inhibiting the activity of different tyrosine kinases, EGFR^19del/T790M/C797S
T2 construct: fused on or other part: Probably a GST tag on the cytoplasmic fragment, as in the vendor's product
T2 sequence (P00533 with tags, fused parts or gaps DEL746-750/T790M/C797S, form open): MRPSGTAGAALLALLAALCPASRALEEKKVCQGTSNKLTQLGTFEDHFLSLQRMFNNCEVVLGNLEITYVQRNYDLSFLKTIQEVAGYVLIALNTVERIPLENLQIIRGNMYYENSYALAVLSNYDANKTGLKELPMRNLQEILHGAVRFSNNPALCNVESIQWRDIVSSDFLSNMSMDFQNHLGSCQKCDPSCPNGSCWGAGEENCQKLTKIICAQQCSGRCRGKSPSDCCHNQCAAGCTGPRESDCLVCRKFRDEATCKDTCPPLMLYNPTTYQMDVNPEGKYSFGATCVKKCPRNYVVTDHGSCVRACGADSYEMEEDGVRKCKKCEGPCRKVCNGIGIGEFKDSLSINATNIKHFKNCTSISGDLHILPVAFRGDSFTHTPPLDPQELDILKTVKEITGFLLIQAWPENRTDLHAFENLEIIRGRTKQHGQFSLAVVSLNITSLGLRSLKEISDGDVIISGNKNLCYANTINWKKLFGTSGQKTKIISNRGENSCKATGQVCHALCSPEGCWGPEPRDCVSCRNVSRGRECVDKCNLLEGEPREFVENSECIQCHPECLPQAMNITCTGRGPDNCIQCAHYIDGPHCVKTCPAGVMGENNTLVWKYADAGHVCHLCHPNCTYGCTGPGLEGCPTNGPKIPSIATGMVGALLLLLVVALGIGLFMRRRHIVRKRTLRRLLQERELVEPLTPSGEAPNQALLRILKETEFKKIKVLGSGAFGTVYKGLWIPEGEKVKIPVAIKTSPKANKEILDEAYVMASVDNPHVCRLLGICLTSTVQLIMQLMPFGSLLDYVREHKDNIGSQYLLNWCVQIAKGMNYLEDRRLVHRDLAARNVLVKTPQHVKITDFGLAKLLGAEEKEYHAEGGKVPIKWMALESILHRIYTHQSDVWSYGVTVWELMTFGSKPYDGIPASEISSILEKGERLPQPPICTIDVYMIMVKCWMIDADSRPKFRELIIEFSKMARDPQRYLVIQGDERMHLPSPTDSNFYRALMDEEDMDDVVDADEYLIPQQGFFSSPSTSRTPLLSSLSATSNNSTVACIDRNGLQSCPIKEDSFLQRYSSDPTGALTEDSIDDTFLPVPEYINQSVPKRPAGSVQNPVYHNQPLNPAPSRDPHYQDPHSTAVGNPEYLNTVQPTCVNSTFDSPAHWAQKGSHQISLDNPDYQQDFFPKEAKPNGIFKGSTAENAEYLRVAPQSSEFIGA
Protocol: as §3, §4, §5

BaF3 parent cell = assay: CCK-8 cell proliferation, BaF3 parent cell; type: cell-based; conditions: Mus musculus, BaF3; CCK-8, 72 hours; read-out: Average value of IC50 of inhibition against cells growth, BaF3 parent cell
Description: (§6) Ba/F3 cells were obtained from Deutsche Sammlung von Mikroorganismen und Zellkulturen GmbH (DSMZ). Ba/F3 cells stably expressing EGFR19del/T790M/C797S or EGFR L858R/T790M/C797S were generated by infecting parental cells with corresponding retroviruses. PC-9-OR was a tumor cell model obtained by simultaneously knocking in T790M and C797S mutations into 19del-activating mutation-dependent PC-9 tumor cells using CRISPR technology. This model, which proliferated dependent on EGFR19del/T790M/C797S resistance mutation, was used to evaluate the inhibitory activity of compounds against EGFR19del/T790M/C797S resistance mutants (Cancer Science. 2022; 113:709-720). All cells used in the study were verified by short tandem repeat (STR) analysis conducted by Genesky.
as §2

[2] = biological target: BaF3-EGFR (19del/T790M/C797S) (Homo sapiens, UniProt P00533, T790M/C797S, cells depend on it, form not given); assay: CCK-8 cell proliferation, BaF3-EGFR(19del/T790M/C797S); type: cell-based; conditions: CCK-8, 72 hours; read-out: Average value of IC50 of inhibition against EGFR-mutant cells growth, BaF3-EGFR (19del/T790M/C797S)
BaF3-EGFR (19del/T790M/C797S), sequence (P00533 with tags, fused parts or gaps DEL746-750/T790M/C797S, form open): as above
Protocol: as §1, §2

EGFR^L858R/T790M/C797S = EGFR^L858R/T790M/C797S (Homo sapiens, UniProt P00533, C797S/L858R/T790M); assay: ELISA kinase activity inhibition, EGFR L858R/T790M/C797S; type: biochemical; conditions: ATP 5 μM, read-out: The average IC50 value (nM) for inhibiting the activity of different tyrosine kinases, EGFR^L858R/T790M/C797S
Protocol: as §4, §5

[3] = system: PC-9-OR (19del/T790M/C797S); assay: CCK-8 cell proliferation, PC-9-OR; type: cell-based; conditions: PC9-OR; CCK-8, 72 hours; read-out: Average value of IC50 of inhibition against EGFR-mutant cells growth, PC-9-OR (19del/T790M/C797S)
Description: as §6, §2

[4] = Pharmacokinetic parameters in rats; type: in vivo; conditions: male, Sprague-Dawley, plasma, rat
Protocol: Sprague-Dawley rats (males, 3 per group), weighing 180 g to 220 g, were administered test compounds intravenously and orally at doses of 1 mg/kg and 5 mg/kg, respectively. The compounds were dissolved in a mixed solvent (5% DMSO+10% Solutol+85% PBS) for intravenous injection. 0.5% CMC-Na solution (800 cps to 1200 cps) was used as a suspension agent for oral administration. At designated time points, 0.2 mL of blood samples were collected via the jugular vein and placed into tubes containing K2-EDTA, stored on ice, and then centrifuged. Sampling intervals for the injection group were 0.083, 0.25, 0.5, 1, 2, 4, 8, and 24 hours, while for the oral group, sampling intervals were 0.25, 0.5, 1, 2, 4, 6, 8, and 24 hours. The blood samples were centrifuged at 6800 g for 6 minutes at 2° C. to 8° C. within 1 hour after collection and stored frozen at approximately −80° C. Subsequently, 200 μL of MeOH was used to precipitate 20 μL of plasma samples containing 100 ng/mL IS. The mixture was vortexed for 1 minute and then centrifuged at 18000 g for 7 minutes. 200 μL of the supernatant was transferred to a 96-well plate, and 1 μL of the supernatant sample was injected for LC-MS/MS analysis. Finally, Phoenix WinNonlin7.0 software was used to calculate the pharmacokinetic (PK) parameters.

| IC50 (EGFR^WT) | IC50 (EGFR^19del/T790M/C797S) | IC50 (BaF3 parent cell) | GI50 [2] | IC50 (EGFR^L858R/T790M/C797S) | other results | SMILES |
| --- | --- | --- | --- | --- | --- | --- |
| > 1000 nM | 23.3 nM | 2.23 µM | 0.229 µM | 54.8 nM | GI50 [1]: 0.327 µM | CCc1cc(N2CCOCC2)c2cc1Nc1nccc(n1)-c1cn(S(=O)(=O)CC)c3cc(ccc13)OCCCn1ccc-2n1 [FBH-3-47, (Z)-4^6-ethyl-1^1-(ethylsulfonyl)-4^4-morpholino-1^1H,5^1H-9-oxa-3-aza-1(3,6)-indole-2(4,2)-pyrimidine-5(4,1)-pyrazol-4(1,3)-benzenacyclononaphane] |
| 154 nM | 35.1 nM | – | – | 35.1 nM | – | CCS(=O)(=O)n1cc2c3ccc(cc31)OCCCn1cc(cn1)-c1cc(c(OC)cc1N1CCOCC1)Nc1ncc(Cl)c-2n1 [HC9284, 2^5-Chloro-1^1-ethylsulfonyl-4^6-methoxy-4^4-morpholin-1^1H,5^1H-9-oxa-3-aza-1(3,6)-indole-2(4,2)-pyrimidine-5(4,1)-pyrazole-4(1,3)-benzenacyclononaphane] |
| 898 nM | 2.9 nM | – | – | 1.4 nM | – | CCS(=O)(=O)n1cc2c3ccc(cc31)OCCCn1cc(cn1)-c1cc(c(OC)cc1N1CCN(C)CC1)Nc1nccc-2n1 [HC9592, (Z)-1^1-ethylsulfonyl-4^6-methoxy-4^4-(4-methylpiperazin-1-yl)-1^1H,5^1H-9-oxa-3-aza-1(3,6)-indole-2(4,2)-pyrimidine-5(4,1) pyrazole-4(1,3)-benzenacyclononaphane] |
| 186 nM | 7.4 nM | 3.19 µM | 0.371 µM | 11.8 nM | GI50 [1]: 0.455 µM | CCOc1cc(N2CCOCC2)c2cc1Nc1nccc(n1)-c1cn(S(=O)(=O)CC)c3cc(ccc13)OCCCn1cc-2cn1 [HC9596, (Z)-4^6-ethoxy-1^1-ethylsulfonyl-4^4-morpholino-1^1H,5^1H-9-oxa-3-aza-1(3,6)-indole-2(4,2)-pyrimidine-5(4,1)-pyrazole-4(1,3)-benzenacyclononaphane] |
| > 1000 nM | 192 nM | – | – | 343 nM | – | CCS(=O)(=O)n1cc2c3ccc(cc31)OCCCn1cc(cn1)-c1cc(cc(CC(C)C)c1N1CCOCC1)Nc1ncc(Cl)c-2n1 [HC90032, 2^5-chloro-1^1-ethylsulfonyl-4^4-morpholino-4^5-2-methylpropyl-1^1H,5^1H-9-oxa-3-aza-1(3,6)-indole-2(4,2)-pyrimidin-5(4,1)-pyrazol-4(1,3)-benzenacyclononaphane] |
| > 1000 nM | > 1000 nM | – | – | > 1000 nM | – | CCS(=O)(=O)n1cc2c3ccc(cc31)OCCCn1cc(cn1)-c1cc(cc(CCC(C)(C)C)c1N1CCOCC1)Nc1ncc(Cl)c-2n1 [HC90042, 2^5-chloro-4^5-(E)-3,3-dimethylbutyl)-1^1-ethylsulfonyl-4^4-morpholin-1^1H,5^1H-9-oxa-3-aza-1(3,6)-indole-2(4,2)-pyrimidin-5(4,1)-pyrazolol-4 (1,3)-benzenacyclononaphane] |
| – | – | 2.37 µM | – | – | IC50 [3]: 2.1 µM | C=CC(=O)Nc1cc(Nc2nccc(-c3cn(C)c4ccccc34)n2)c(OC)cc1N(C)CCN(C)C [Osimertinib, reference compound] |
| > 1000 nM | 23.3 nM | 1.87 µM | 0.311 µM | 53.2 nM | GI50 [1]: 0.734 µM | CCS(=O)(=O)n1cc2c3ccc(cc31)OCC(C)Cn1cc(cn1)-c1cc(c(OC)cc1N1CCOCC1)Nc1nccc-2n1 (stereo not shown) [WQX-1-80, (Z)-1^1-(ethylsulfonyl)-4^6-Methoxy-7-methyl-4^4-morpholino-1^1H,5^1H-9-oxa-3-aza-1(3,6)-indole-2(4,2)-pyrimidin-5(4,1)-pyrazol-4(1,3)-benzenacyclononaphane] |
| > 1000 nM | 8.2 nM | 2 µM | 0.465 µM | 12.6 nM | – | CCS(=O)(=O)n1cc2c3ccc(cc31)OC(C)CCn1cc(cn1)-c1cc(c(OC)cc1N1CCOCC1)Nc1nccc-2n1 (stereo not shown) [WQX-1-86, (Z)-1^1-(ethylsulfonyl)-4^6-methoxy-8-methyl-4^4-morpholino-1^1H,5^1H-9-oxa-3-aza-1(3,6)-indole-2(4,2)-pyrimidin-5(4,1)-pyrazol-4(1,3)-benzenacyclononaphane] |
| > 1000 nM | 33 nM | – | – | 63.3 nM | – | CCS(=O)(=O)n1cc2c3ccc(cc31)OCC1(CC1)Cn1cc(cn1)-c1cc(c(OC)cc1N1CCOCC1)Nc1nccc-2n1 [WQX-1-87, (Z)-1′-(ethylsulfonyl)-6′-methoxy-4′-morpholino spiro[cyclopropane-7′-9-oxa-3-aza-1(3,6)-indole-2(4,2)-pyrimidin-5(4,1)-pyrazol-4(1,3)-benzenacyclononaphane]] |
| 141 nM | 1 nM | – | – | 14.1 nM | – | CCS(=O)(=O)n1cc2c3ccc(cc31)OCCCn1cc(cn1)-c1cc(c(OC)cc1CN1CCOCC1)Nc1nccc-2n1 [WQX-2-35, (Z)-1^1-(ethylsulfonyl)-4^6-methoxy-4^4-(morpholinomethyl)-1^1H,5^1H-9-oxa-3-aza-1(3,6)-indole-2(4,2)-pyrimidine-5(4,1)-pyrazole-4(1,3)-benzocyclononane] |
| 190 nM | 9 nM | – | – | 14.4 nM | – | CCS(=O)(=O)n1cc2c3ccc(cc31)OCCCCCCOc1cc(ccc1N1CCOCC1)Nc1ncc(Cl)c-2n1 [reference compound] |
| – | – | – | – | – | Cmax ([4]; IV 1 mg/kg): 2420 ± 165 ng/mL; clearance ([4]; IV 1 mg/kg): 16.2 ± 1.4 mL/min/kg; half-life ([4]; IV 1 mg/kg): 1.35 ± 0.18 h; Cmax ([4]; PO 5 mg/kg): 135 ng/mL; half-life ([4]; PO 5 mg/kg): 2.57 h; bioavailability ([4]; PO 5 mg/kg, read-out: F (oral bioavailability)): 11.9% | CCS(=O)(=O)n1cc2c3ccc(cc31)OCCCCCCOc1cc(c(C)cc1N1CCOCC1)Nc1ncc(Cl)c-2n1 [reference compound] |
